Source: patent US20240417812A1, “METHODS FOR TREATING SOLID CANCER PATIENTS WITH CLONAL HEMATOPOIESIS OF INDETERMINATE POTENTIAL” (Olatec Therapeutics, Inc., priority 2022, published 2024)
Read-outs that look alike come from different tables or passages of the source.

What was measured:
[1] = tested on: tumor-infiltrating granulocytes; assay: Flow cytometry of tumor-infiltrating granulocytes of BM chimera mice; assay type: in vivo, mouse; conditions: Tet2+/− chimeras
Procedure: After 6 weeks of engraftment, mice were given breast tumors via orthotopic transplantation of breast cancer cells. Tumor progression was assessed by measuring the volume of the tumor in the mouse using calipers. After 15 days, mice were sacrificed, and their bone marrow, peripheral blood, and tumors were harvested for flow cytometry analysis to determine the levels of immune cell populations and relative contribution from WT or Tet2+/+ or Tet2+/− bone marrow cells.
Bone marrow isolation and cell staining was performed on ice in staining medium (SM; Hanks Balanced Salt Solution [HBSS 1×, Corning 1-022-CM] supplemented with heat inactivated fetal bovine serum [FBS, VWR 97068-05] to a final concentration of 2%). Femurs and tibiae were flushed with 3 mL of SM and followed by RBC lysis with ACK lysis buffer. Peripheral blood was isolated via the heart and placed into RBC lysis buffer. After RBC lysis cells were incubated on ice for 30 minutes with antibody cocktails prior to being washed and resuspended in SM containing propidium iodide to stain dead cells. Flow cytometry was performed on the BD FACSCelesta.

E0771 cells [2] = assay: E0771 orthotopic breast tumor model in germline Tet2+/+ or Tet2+/− mice; assay type: in vivo, mouse
Procedure: 6-8 week old B6(Cg)-Tet2tm1.2Rao/J (JAX) female mice heterozygous for Tet2 allele or wild-type for Tet2 allele were purchased for Jackson Laboratories.
The murine metastatic mammary cancer cell line E0771 was purchased from ATCC. E0771 cells were cultured in RPMI (Corning) supplemented with 10% FBS, 1% HEPES, 100 units/ml penicillin and 0.1 mg/ml streptomycin. Cells were maintained in a humidified 5% CO2 atmosphere at 37° C.
(§1) 2×10^5 E0771 cells were mixed with matrigel and implanted orthotopically into the mammary fat pad (day 0). Mice treated with dapansutrile were fed ad libitum with food pellets containing 7.5 g dapansutrile/kg food, which started on day 3 after E0771 cell implantation and continued until being sacrificed. Mice were sacrificed on day 18 for the germline mouse model and day 15 for the chimeric mouse model. Mice typically consume about 4 g of food per day, resulting in an approximate daily dose of 0 mg/kg/day for control groups and 1,000 mg/kg/day for the treatment groups. […] Wild-type and Tet2+/− mice were fed with control food pellets without dapansutrile. Mice were sacrificed following 15-18 days after E0771 cell implantation. Tumor volumes were assessed using ½(L×W×H) measured via digital caliper.
Myeloid cells are the predominant source of tumor-promoting IL-1β in the breast cancer TME, and TET2 mutations have been reported in tumor-infiltrating leukocytes. […] We orthotopically implanted the murine metastatic luminal B breast cancer cell line, E0771, into Tet2+/+ (WT) or Tet2+/− germline mice. Three days after implantation, mice were placed on a control chow diet or a nutritionally identical diet enriched with OLT1177® (dapansutrile) for 15 days. Mice were sacrificed following […] after E0771 cell implantation.

[3] = orally administered to healthy subjects; cited from earlier work
NLRP3 inflammasome = NLRP3 inflammasome (Homo sapiens, UniProt Q96P20); conditions: cited from earlier work
Chain of NLRP3 inflammasome (Q96P20 whole entry): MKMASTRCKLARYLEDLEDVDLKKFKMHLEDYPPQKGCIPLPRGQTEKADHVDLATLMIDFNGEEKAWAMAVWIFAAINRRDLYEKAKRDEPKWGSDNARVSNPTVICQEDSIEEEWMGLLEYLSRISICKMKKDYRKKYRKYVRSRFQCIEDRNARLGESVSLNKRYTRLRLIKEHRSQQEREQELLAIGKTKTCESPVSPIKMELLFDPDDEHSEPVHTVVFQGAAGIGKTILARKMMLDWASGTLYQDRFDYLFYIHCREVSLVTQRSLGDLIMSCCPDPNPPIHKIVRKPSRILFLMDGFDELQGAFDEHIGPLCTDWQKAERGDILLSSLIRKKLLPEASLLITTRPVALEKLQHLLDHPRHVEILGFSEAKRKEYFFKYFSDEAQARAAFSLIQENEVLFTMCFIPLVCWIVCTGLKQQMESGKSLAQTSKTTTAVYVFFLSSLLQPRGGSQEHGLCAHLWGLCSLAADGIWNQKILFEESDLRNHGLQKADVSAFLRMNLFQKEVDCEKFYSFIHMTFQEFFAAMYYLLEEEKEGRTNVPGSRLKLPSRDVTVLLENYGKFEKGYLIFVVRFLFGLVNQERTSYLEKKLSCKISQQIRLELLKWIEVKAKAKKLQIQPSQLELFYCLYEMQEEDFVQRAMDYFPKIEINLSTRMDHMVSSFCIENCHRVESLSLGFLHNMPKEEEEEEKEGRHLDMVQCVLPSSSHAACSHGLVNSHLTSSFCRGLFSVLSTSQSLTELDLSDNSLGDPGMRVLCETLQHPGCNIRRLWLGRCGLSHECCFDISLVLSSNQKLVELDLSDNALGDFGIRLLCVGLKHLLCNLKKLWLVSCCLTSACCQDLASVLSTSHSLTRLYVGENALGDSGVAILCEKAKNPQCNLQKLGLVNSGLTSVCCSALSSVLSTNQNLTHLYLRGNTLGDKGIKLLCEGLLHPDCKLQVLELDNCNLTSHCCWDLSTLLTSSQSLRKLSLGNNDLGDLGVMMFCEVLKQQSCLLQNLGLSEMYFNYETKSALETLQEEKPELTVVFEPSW

[4] = tested on: chemokine C-C motif ligand 2 (CCL2); assay: Plasma CCL2 of BM chimera mice; assay type: in vivo, mouse; conditions: Tet2+/− chimeras, dapansutrile diet vs standard diet, p<0.05
From the text: (§2) FIGS. 5A-5B show plasma cytokine production of chemokine C-C motif ligand 2 (CCL2, 5A) and keratinocyte chemoattractant (KC, 5B) of BM chimera mice from FIG. 2

[5] = tested on: keratinocyte chemoattractant (KC); assay: Plasma KC of BM chimera mice; assay type: in vivo, mouse; conditions: Tet2+/− chimeras, dapansutrile diet vs standard diet, p<0.05
From the text: as §2

[6] = Blood level in mice fed dapansutrile food pellets; assay type: in vivo, mouse; conditions: 7.5 g/kg of dapansutrile in food (approx. 1,000 mg/kg/day)
From the text: as §1

[7] = humans treated orally at 1000 mg/day; cited from earlier work
IL-1β = IL-1β production from bone marrow adherent cells isolated from tumor-bearing mice (ELISA); assay type: cell-based, mouse; conditions: adherent bone marrow cells from tumor-bearing Tet2+/− mice, LPS stimulated, dapansutrile treated vs untreated; p<0.05
Procedure: Bone marrow cells from tumor-bearing mice was collected and filtered through […] cell strainer. 3×10^6 cells were plated in 24-well plates and incubated overnight. The next day to non-adherent fraction was removed and the adherent fraction was treated with 10 μM dapansutrile and were cultured in RPMI supplemented with 10% FBS, 100 units/ml penicillin and 0.1 mg/ml streptomycin for 24 hours. Cytokines were measured in cell culture supernatants using DuoSet ELISA (R&D Systems).
Bone marrow cells were collected from the four long bones as described above and filtered through a […] cell strainer prior to counting. 1×10^6 cells were plated in flat bottom tissue culture plates and incubated overnight. The next day the non-adherent fraction was removed and the adherent fraction was used for downstream experiments.
For western blot and cytokine analysis, adherent bone marrow cells were stimulated±LPS (100 ng/mL) and cultured for an additional 24 hours. Cells were cultured in RPMI supplemented with 10% FBS, 100 units/ml penicillin and 0.1 mg/ml streptomycin. […] Cytokines were measured in cell culture supernatants using DuoSet ELISA (R&D Systems).
Next, we assessed the inflammatory potential of myeloid cells from tumor-bearing mice. […]

Tet2+/− clones = assay: Expansion of Tet2+/− clones in tumor-bearing BM chimera mice; assay type: in vivo, mouse; conditions: dapansutrile diet
From the text: To create a mouse model that more closely resembles human CHIP, we generated mice with chimeric bone marrow (BM) that was 75% wild type (WT), and 25% Tet2 […] (Tet2+/+) or heterozygous (Tet2+/−). To identify the contribution of WT or Tet2+/− cells to hematopoiesis, we used the pan hematopoietic marker CD45. We used two congenic mouse strains with variants in CD45 C57BL/6 and Boy/J (CD45.2 and CD45.1, respectively), which can be identified with fluorescently labeled antibodies using flow cytometry analysis. To generate the chimeric BM, we lethally irradiated Boy/J recipient mice (CD45.1) with an 11gy split-dose administered three hours apart. Irradiated recipient mice were then transplanted with 2 million unfractionated BM cells that were a mix of 75% CD45.1 WT and 25% CD45.2
Tet2+/+ or Tet2+/−. Cells were given via a retro-orbital (RO) sinus injection. To monitor the engraftment of donor-derived cells, mice were bled every four weeks via the submandibular vein. […]
(§3) After 6 weeks of engraftment, mice were given breast tumors via orthotopic transplantation of breast cancer cells. Tumor progression was assessed by measuring the volume of the tumor in the mouse using calipers. […]
In this example, we first assessed the extent to which Tet2-deficient myeloid cells infiltrated into peripheral blood (FIG. 3A) and in the tumor (FIG. 3B).

E0771 cells [8] = assay: E0771 orthotopic breast tumor model in Tet2+/+ or Tet2+/− bone marrow chimeric mice; assay type: in vivo, mouse
From the text: as §1
To create a mouse model that more closely resembles human CHIP, we generated mice with chimeric bone marrow (BM) that was 75% wild type (WT), and 25% Tet2 […] (Tet2+/+) or heterozygous (Tet2+/−). To identify the contribution of WT or Tet2+/− cells to hematopoiesis, we used the pan hematopoietic marker CD45. […]
as §3

CS(=O)(=O)CCC#N [dapansutrile, 3-methanesulfonyl-propionitrile]
tumor-infiltrating granulocytes (frequency) ([1]; dapansutrile diet vs standard diet, p<0.05): significantly decreased
MHC-II expression (gMFI) on tumor-infiltrating granulocytes ([1]; dapansutrile diet, p<0.001): rescued
tumor growth (E0771 cells [2]; Tet2+/+ (WT) germline mice on dapansutrile vs standard diet, p<0.05): significantly decreased
tumor growth, difference between genotypes (E0771 cells [2]; Tet2+/+ (WT) vs Tet2+/− mice, both on dapansutrile diet): No changes in tumor growth
tumor growth reduction (E0771 cells [2]; Tet2+/− germline mice, dapansutrile diet (7.5 g/kg food, from day 3) vs Tet2+/− on standard diet, p<0.01): 68%
safety [3]: safe
NLRP3 inflammasome inhibition (NLRP3 inflammasome): selectively inhibit
circulating CCL2 [4]: significantly decreased
circulating KC [5]: significantly decreased
blood level [6]: ~40000 ng/mL
blood level [7]: 40000 ng/mL
IL-1β secretion (IL-1β): significantly less
expansion of Tet2+/− clones (Tet2+/− clones): able to reduce
tumor growth (E0771 cells [8]; Tet2+/+ chimeric mice, dapansutrile diet, to baseline level equivalent to dapansutrile-treated Tet2+/− chimeric mice): suppressed tumor growth
tumor growth (E0771 cells [8]; Tet2+/− chimeric mice, dapansutrile diet from day 3 vs control chow, p<0.001): suppressed
